Results reported in PMC6017193, “Structure-Based Discovery of a Series of 5H-Pyrrolo[2,3-b]pyrazine FGFR Kinase Inhibitors” (Molecules : A Journal of Synthetic Chemistry and Natural …, 2018).

What was measured:
PDGFR-β = PDGFR-β (Homo sapiens, UniProt P09619); assay: Kinase panel profiling; format: biochemical
FGFR3 = FGFR3 (Homo sapiens, UniProt P22607); assay: Kinase panel profiling; format: biochemical
AXL = molecular target: T1, AXL (Homo sapiens, UniProt P30530); assay: Kinase panel profiling; format: biochemical
T1 sequence (P30530 26-894): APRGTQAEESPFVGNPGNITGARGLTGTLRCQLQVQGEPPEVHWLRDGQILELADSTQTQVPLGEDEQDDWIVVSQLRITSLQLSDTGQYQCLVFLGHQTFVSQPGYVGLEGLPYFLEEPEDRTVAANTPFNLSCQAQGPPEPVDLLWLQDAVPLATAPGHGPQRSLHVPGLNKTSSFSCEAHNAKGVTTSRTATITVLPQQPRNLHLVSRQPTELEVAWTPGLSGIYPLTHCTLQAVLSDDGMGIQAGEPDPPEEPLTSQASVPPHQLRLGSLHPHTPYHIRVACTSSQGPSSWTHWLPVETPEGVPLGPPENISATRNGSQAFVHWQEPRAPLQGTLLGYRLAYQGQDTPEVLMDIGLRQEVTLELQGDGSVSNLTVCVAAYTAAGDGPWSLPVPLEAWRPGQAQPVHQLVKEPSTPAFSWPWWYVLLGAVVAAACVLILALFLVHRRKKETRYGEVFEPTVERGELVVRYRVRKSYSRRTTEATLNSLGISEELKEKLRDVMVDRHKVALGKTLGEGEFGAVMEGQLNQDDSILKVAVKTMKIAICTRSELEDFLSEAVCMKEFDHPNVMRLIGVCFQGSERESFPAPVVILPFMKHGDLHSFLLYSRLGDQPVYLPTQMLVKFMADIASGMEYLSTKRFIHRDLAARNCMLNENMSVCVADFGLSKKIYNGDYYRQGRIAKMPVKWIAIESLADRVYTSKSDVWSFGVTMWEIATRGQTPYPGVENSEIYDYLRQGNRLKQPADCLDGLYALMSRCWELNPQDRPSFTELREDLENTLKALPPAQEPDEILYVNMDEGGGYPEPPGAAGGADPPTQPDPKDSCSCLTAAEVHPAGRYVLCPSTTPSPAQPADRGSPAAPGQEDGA

ROS1 = ROS1 (Homo sapiens, UniProt P08922); assay: Kinase panel profiling; format: biochemical
DDR2 = molecular target: T2, DDR2 (Homo sapiens, UniProt Q16832); assay: Kinase panel profiling; format: biochemical
T2 sequence (Q16832 22-855): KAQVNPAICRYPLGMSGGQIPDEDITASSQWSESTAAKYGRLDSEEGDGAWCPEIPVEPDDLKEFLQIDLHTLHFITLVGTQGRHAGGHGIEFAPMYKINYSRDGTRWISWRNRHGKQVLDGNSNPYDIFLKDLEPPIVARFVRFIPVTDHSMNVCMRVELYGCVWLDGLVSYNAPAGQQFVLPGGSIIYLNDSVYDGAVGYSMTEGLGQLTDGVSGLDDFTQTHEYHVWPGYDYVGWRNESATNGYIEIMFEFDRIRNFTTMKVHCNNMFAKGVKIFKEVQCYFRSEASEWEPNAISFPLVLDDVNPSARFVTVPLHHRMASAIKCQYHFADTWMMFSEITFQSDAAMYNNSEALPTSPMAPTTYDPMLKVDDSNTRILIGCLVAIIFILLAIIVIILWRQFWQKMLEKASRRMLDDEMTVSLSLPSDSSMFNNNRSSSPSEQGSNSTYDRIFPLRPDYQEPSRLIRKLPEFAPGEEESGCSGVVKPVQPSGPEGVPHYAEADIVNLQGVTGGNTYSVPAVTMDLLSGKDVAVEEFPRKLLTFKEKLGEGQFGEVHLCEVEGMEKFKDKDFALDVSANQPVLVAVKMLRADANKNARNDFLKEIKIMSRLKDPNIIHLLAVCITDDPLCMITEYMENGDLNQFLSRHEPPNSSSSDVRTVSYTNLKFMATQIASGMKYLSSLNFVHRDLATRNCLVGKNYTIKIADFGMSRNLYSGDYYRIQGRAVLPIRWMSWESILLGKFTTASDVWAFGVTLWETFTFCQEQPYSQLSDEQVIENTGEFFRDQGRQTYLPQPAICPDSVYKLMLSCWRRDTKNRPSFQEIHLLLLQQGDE

KDR = KDR (Homo sapiens, UniProt P35968); assay: Kinase panel profiling; format: biochemical
VEGFR-1 = VEGFR-1 (Homo sapiens, UniProt P17948); assay: Kinase panel profiling; format: biochemical
ErbB2 = ErbB2 (Homo sapiens, UniProt P04626); assay: Kinase panel profiling; format: biochemical
Src = Src (Homo sapiens, UniProt P12931); assay: Kinase panel profiling; format: biochemical
Abl = Abl (Homo sapiens, UniProt P00519); assay: Kinase panel profiling; format: biochemical
[1] = Human liver microsome stability test; format: in vitro ADME; settings: human liver microsomes, pH 7.4, 1 μM test compound, read-out: HLM (human liver microsome stability test, clearance)
Method: Microsomes (Human microsome: Xenotech, Lot No.H0610; Rat microsome: Xenotech, Lot No. R1000) (0.5 mg/mL) were preincubated with 1 μM of test compound for 5 min at 37 °C in 0.1 M phosphate buffer (pH 7.4) with 1 mmol Ethylenediaminetetraacetic acid (EDTA), and 5 mmol MgCl2. The reactions were initiated by adding prewarmed cofactors (1 mmol NADPH). After 0-min, 5-min, 10-min, and 30-min incubations at 37 °C, the reactions were stopped by adding an equal volume of cold acetonitrile. The samples were vortexed for 10 min, and then centrifuged at 10,000× g for 10 min. Supernatants were analyzed by LC/MS/MS for the amount of the parent compound remaining, and the corresponding loss of the parent compound was also determined by LC/MS/MS.

EPH-A2 = EPH-A2 (Homo sapiens, UniProt P29317); assay: Kinase panel profiling; format: biochemical

Sequence of Abl (P00519 whole entry, species assumed): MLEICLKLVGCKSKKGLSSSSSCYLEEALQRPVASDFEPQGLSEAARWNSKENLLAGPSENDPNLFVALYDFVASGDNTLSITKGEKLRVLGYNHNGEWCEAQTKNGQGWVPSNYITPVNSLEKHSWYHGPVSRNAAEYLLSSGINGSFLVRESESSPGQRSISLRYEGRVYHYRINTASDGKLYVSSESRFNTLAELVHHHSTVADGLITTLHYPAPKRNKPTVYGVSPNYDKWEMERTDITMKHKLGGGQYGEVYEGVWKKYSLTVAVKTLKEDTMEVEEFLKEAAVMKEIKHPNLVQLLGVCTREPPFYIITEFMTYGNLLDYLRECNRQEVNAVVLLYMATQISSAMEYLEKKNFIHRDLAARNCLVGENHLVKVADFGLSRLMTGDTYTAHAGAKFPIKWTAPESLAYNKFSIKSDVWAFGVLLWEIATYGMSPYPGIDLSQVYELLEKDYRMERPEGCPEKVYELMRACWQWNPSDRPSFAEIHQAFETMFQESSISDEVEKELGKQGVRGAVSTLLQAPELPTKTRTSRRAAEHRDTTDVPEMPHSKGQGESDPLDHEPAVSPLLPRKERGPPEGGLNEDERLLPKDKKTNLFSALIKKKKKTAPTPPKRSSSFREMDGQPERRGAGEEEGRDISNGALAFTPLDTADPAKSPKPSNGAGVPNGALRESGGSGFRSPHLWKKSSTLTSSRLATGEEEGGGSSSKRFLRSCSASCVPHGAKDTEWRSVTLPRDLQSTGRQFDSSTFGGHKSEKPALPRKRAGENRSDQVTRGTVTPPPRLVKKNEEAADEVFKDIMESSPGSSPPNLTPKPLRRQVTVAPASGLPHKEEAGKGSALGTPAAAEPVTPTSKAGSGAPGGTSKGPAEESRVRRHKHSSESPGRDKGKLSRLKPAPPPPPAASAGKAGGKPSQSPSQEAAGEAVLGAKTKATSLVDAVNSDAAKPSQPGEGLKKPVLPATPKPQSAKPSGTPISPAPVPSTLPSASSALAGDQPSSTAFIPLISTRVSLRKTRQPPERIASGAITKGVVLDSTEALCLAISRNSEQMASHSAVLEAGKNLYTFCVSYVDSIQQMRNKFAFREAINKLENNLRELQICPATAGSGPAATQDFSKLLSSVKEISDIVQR
Sequence of ErbB2 (P04626 23-1255, species assumed): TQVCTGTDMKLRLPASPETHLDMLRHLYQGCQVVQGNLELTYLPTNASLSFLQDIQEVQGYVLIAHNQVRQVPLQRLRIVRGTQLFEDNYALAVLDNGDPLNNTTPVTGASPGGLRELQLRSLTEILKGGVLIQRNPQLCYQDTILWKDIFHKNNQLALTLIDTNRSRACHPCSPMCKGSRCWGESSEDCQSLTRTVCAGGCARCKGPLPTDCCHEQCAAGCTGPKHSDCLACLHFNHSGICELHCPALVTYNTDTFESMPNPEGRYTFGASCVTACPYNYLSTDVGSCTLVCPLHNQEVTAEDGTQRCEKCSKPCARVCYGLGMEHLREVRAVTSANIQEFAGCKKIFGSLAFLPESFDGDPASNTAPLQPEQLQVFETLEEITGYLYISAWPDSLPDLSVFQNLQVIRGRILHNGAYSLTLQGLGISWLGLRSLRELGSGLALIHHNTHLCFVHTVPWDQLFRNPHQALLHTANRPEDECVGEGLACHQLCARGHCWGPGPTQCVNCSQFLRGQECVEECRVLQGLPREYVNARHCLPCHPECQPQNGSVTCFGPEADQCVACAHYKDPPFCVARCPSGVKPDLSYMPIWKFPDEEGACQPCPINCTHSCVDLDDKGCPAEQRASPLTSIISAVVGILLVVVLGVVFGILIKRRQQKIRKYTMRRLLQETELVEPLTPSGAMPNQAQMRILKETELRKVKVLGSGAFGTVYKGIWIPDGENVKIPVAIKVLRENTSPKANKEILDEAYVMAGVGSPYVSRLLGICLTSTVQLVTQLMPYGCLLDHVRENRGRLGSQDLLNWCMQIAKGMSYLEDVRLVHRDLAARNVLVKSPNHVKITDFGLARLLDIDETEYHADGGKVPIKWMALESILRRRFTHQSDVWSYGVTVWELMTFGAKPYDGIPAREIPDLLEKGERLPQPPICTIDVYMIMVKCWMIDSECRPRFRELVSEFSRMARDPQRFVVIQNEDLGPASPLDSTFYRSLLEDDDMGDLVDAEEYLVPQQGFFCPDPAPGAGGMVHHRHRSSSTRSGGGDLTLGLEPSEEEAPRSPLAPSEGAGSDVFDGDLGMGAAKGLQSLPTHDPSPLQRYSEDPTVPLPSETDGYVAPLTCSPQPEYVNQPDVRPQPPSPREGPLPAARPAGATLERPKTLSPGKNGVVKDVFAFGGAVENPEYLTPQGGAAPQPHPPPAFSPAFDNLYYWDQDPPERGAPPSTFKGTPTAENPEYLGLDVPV
Sequence of PDGFR-β (P09619 33-1106, species assumed): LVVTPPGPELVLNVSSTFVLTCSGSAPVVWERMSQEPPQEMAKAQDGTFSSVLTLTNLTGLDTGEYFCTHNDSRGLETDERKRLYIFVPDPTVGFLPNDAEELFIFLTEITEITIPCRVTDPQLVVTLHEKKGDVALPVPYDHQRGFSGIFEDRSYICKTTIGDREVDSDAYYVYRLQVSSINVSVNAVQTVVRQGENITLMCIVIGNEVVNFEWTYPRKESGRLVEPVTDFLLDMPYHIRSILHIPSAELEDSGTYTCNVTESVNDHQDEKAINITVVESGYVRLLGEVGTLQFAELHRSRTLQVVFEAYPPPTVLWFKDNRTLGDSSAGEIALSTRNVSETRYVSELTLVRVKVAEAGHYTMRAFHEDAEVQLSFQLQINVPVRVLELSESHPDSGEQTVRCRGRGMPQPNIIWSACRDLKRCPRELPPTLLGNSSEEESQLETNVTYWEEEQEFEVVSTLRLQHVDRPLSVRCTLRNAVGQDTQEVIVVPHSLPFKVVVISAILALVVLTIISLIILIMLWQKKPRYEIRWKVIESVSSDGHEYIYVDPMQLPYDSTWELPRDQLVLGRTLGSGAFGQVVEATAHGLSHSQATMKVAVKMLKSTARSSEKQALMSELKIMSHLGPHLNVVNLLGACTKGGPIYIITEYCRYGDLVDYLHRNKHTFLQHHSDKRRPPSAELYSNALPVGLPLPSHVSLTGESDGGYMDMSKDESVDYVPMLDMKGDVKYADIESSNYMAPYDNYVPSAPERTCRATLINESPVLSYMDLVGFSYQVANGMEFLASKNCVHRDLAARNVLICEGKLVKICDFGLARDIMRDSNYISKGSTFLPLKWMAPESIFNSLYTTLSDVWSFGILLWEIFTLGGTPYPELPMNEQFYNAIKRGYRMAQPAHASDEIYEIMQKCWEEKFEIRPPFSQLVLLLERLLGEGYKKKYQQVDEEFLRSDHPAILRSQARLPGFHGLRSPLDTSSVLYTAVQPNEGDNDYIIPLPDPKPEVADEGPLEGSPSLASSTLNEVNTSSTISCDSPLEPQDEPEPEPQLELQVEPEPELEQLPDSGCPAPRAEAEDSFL
Sequence of KDR (P35968 20-1356, species assumed): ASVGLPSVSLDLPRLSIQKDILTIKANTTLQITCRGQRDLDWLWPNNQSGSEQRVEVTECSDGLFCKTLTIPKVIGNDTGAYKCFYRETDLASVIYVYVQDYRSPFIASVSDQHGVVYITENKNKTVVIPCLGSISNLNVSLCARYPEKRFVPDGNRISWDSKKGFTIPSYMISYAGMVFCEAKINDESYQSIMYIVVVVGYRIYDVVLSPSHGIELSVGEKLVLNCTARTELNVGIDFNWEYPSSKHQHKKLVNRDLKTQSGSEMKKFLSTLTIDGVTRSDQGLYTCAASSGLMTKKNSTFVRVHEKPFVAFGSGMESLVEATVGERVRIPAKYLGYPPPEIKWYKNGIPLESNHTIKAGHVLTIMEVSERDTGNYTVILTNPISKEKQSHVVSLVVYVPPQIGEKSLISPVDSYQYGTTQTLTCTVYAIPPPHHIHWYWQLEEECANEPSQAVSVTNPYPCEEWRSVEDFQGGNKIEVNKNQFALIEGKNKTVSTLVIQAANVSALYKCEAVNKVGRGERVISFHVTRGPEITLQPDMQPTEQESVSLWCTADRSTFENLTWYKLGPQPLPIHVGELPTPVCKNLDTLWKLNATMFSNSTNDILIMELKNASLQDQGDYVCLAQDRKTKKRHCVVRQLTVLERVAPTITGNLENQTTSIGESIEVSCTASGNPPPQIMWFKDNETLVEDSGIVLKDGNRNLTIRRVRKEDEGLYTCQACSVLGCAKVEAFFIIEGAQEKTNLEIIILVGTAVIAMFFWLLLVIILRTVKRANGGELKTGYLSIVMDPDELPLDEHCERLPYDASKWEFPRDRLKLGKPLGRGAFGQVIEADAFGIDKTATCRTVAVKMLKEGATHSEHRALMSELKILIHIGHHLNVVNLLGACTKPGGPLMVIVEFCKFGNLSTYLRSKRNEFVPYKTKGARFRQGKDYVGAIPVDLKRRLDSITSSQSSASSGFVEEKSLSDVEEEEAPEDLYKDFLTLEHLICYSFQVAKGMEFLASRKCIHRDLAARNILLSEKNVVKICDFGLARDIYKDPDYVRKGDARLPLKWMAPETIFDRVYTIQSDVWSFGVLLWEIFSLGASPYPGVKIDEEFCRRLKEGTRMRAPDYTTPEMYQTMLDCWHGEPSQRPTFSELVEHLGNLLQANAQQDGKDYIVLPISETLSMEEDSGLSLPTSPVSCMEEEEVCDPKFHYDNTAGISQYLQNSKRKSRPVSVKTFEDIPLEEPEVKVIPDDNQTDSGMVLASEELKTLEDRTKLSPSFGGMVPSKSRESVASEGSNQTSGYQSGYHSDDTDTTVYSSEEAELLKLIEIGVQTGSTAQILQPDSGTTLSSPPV

**Q.** Which inhibition at 0.01 µM (PDGFR-β; 10 nM) does the source give for O=S(=O)(c1cn(CCF)cn1)n1ccc2ncc(-c3cn[nH]c3)nc21 [Compound 13, 5-((1-(2-fluoroethyl)-1H-imidazol-4-yl)sulfonyl)-3-(1H-pyrazol-4-yl)-5H-pyrrolo[2,3-b]pyrazine] here?
**A.** Its inhibition at 0.01 µM is 12.8%.

**Q.** And the inhibition at 0.1 µM (PDGFR-β; 100 nM)?
**A.** The inhibition at 0.1 µM was 30.1%.

**Q.** What about the inhibition at 1 µM (PDGFR-β; 1000 nM) of the same compound?
**A.** The inhibition at 1 µM was 58.6%.

**Q.** And the inhibition at 0.01 µM (FGFR3; 10 nM)?
**A.** Its inhibition at 0.01 µM is 42.9%.

**Q.** What about the inhibition at 0.1 µM (FGFR3; 100 nM) of the same compound?
**A.** The inhibition at 0.1 µM was 79%.

**Q.** And the inhibition at 1 µM (FGFR3; 1000 nM)?
**A.** The inhibition at 1 µM was 88.9%.

**Q.** What about the inhibition at 0.01 µM (AXL; 10 nM) of the same compound?
**A.** Its inhibition at 0.01 µM is 1.1%.

**Q.** And the inhibition at 0.1 µM (AXL; 100 nM)?
**A.** Its inhibition at 0.1 µM is 2.9%.

**Q.** And the inhibition at 1 µM (AXL; 1000 nM)?
**A.** Its inhibition at 1 µM is -5.5%.

**Q.** What about the inhibition at 0.01 µM (ROS1; 10 nM) of the same compound?
**A.** The inhibition at 0.01 µM was -3.8%.

**Q.** What about the inhibition at 0.1 µM (ROS1; 100 nM) of the same compound?
**A.** Its inhibition at 0.1 µM is 3%.

**Q.** And the inhibition at 1 µM (ROS1; 1000 nM)?
**A.** The inhibition at 1 µM was 11.8%.

**Q.** And the inhibition at 0.01 µM (DDR2; 10 nM)?
**A.** Its inhibition at 0.01 µM is 3.6%.

**Q.** And the inhibition at 0.1 µM (DDR2; 100 nM)?
**A.** Its inhibition at 0.1 µM is 0.9%.

**Q.** What about the inhibition at 1 µM (DDR2; 1000 nM) of the same compound?
**A.** Its inhibition at 1 µM is 4.6%.

**Q.** What about the inhibition at 0.01 µM (KDR; 10 nM) of the same compound?
**A.** The inhibition at 0.01 µM was 7.4%.

**Q.** What about the inhibition at 0.1 µM (KDR; 100 nM) of the same compound?
**A.** Its inhibition at 0.1 µM is 17.1%.

**Q.** And the inhibition at 1 µM (KDR; 1000 nM)?
**A.** Its inhibition at 1 µM is 46.3%.

**Q.** What about the inhibition at 0.01 µM (VEGFR-1; 10 nM) of the same compound?
**A.** Its inhibition at 0.01 µM is 0%.

**Q.** And the inhibition at 0.1 µM (VEGFR-1; 100 nM)?
**A.** Its inhibition at 0.1 µM is 4.9%.

**Q.** What about the inhibition at 1 µM (VEGFR-1; 1000 nM) of the same compound?
**A.** The inhibition at 1 µM was 0%.

**Q.** What about the inhibition at 0.01 µM (ErbB2; 10 nM) of the same compound?
**A.** Its inhibition at 0.01 µM is 0%.

**Q.** What about the inhibition at 0.1 µM (ErbB2; 100 nM) of the same compound?
**A.** Its inhibition at 0.1 µM is 0%.

**Q.** And the inhibition at 1 µM (ErbB2; 1000 nM)?
**A.** Its inhibition at 1 µM is 0%.

**Q.** And the inhibition at 0.01 µM (Src; 10 nM)?
**A.** The inhibition at 0.01 µM was 0%.

**Q.** What about the inhibition at 0.1 µM (Src; 100 nM) of the same compound?
**A.** Its inhibition at 0.1 µM is 0%.

**Q.** And the inhibition at 1 µM (Src; 1000 nM)?
**A.** Its inhibition at 1 µM is 0%.

**Q.** And the inhibition at 0.01 µM (Abl; 10 nM)?
**A.** Its inhibition at 0.01 µM is 0%.

**Q.** What about the inhibition at 0.1 µM (Abl; 100 nM) of the same compound?
**A.** The inhibition at 0.1 µM was 0%.

**Q.** What about the inhibition at 1 µM (Abl; 1000 nM) of the same compound?
**A.** The inhibition at 1 µM was 0%.

**Q.** What about the microsomal CLint at 1 μM [1] of the same compound?
**A.** The microsomal CLint at 1 μM was 1 µL/min/mg.

**Q.** What about the inhibition at 0.01 µM (EPH-A2; 10 nM) of the same compound?
**A.** The inhibition at 0.01 µM was 0%.

**Q.** What about the inhibition at 0.1 µM (EPH-A2; 100 nM) of the same compound?
**A.** The inhibition at 0.1 µM was 0%.

**Q.** And the inhibition at 1 µM (EPH-A2; 1000 nM)?
**A.** Its inhibition at 1 µM is 0%.
